{"source": "paper PMC4522657", "about": "“Identification of a DYRK1A Inhibitor that Induces Degradation of the Target Kinase using Co-chaperone CDC37 fused with Luciferase nanoKAZ” (Scientific Reports, 2015)", "assay_in_all_cases": "Kinase panel, CaNDY 1 µM", "format_in_all_cases": "biochemical", "conditions_in_all_cases": "CaNDY 1 µM relative to DMSO", "key": {"ABL": {"target": "T1, ABL (Homo sapiens, UniProt P00519)", "T1 construct": "purchased Carna Biosciences", "procedure,_shortened": "(§1)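 GST-tagged (N-term) full-length human kinases, baculovirus-expressed; 1% DMSO final; 1 h, RT; mobility shift; % inhibition vs no-inhibitor control from P/(P+S).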"}, "ALK(F1174L)": {"target": "T2, ALK(F1174L) (Homo sapiens, UniProt Q9UM73, F1174L)", "T2 construct": "purchased Carna Biosciences", "T2 sequence (Q9UM73 19-1620 F1174L)": "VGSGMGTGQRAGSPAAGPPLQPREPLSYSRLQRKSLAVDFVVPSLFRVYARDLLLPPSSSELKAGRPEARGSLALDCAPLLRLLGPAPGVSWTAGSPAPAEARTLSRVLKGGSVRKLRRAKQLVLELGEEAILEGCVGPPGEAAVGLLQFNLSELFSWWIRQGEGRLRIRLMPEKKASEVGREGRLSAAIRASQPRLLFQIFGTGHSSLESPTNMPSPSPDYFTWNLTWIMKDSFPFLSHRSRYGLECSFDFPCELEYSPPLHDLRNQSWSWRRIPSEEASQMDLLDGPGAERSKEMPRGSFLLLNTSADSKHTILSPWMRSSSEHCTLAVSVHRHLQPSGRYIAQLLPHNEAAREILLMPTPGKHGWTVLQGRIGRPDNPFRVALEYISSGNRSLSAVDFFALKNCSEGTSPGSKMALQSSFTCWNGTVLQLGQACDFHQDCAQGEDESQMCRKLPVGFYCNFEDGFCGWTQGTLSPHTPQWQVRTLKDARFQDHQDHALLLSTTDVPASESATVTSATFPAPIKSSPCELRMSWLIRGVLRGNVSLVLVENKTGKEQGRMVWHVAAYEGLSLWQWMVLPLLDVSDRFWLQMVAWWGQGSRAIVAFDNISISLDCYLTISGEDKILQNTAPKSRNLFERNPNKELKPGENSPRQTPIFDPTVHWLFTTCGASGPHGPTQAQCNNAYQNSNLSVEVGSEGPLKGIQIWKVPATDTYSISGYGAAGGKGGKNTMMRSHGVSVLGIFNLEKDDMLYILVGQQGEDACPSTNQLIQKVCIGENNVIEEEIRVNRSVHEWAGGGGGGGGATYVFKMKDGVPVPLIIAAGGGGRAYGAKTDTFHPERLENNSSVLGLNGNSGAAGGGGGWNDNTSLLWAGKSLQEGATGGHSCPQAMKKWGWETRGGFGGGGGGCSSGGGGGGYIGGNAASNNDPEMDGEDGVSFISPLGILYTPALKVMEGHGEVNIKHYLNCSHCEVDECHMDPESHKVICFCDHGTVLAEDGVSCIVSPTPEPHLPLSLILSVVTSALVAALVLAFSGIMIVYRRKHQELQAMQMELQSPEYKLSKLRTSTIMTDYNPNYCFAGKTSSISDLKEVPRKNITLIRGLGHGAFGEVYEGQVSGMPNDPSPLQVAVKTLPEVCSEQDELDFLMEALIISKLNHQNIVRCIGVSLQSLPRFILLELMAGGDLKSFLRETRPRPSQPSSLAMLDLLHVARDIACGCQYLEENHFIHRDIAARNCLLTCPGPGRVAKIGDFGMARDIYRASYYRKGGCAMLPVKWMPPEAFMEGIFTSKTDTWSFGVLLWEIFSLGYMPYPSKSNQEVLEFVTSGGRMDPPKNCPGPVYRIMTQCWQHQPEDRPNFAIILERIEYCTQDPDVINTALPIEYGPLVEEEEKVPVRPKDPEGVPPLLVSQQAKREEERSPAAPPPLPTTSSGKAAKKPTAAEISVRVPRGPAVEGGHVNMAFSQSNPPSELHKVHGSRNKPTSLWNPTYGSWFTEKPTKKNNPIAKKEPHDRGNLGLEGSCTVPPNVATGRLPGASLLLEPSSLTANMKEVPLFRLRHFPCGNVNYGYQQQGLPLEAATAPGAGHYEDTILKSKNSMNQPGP", "procedure,_shortened": "as §1"}, "ALK(L1196M)": {"target": "T3, ALK(L1196M) (Homo sapiens, UniProt Q9UM73, L1196M)", "T3 construct": "purchased Carna Biosciences", "T3 sequence (Q9UM73 19-1620 L1196M)": "as the sequence (Q9UM73 19-1620 F1174L) above, with L1156F, L1178M counted along it", "procedure,_shortened": "as §1"}, "AurB": {"target": "T4, AurB (Homo sapiens, UniProt Q96GD4)", "T4 construct": "purchased Carna Biosciences", "procedure,_shortened": "as §1"}, "BLK": {"target": "T5, BLK (Homo sapiens, UniProt P51451)", "T5 construct": "purchased Carna Biosciences", "procedure,_shortened": "as §1"}, "BRSK2": {"target": "T6, BRSK2 (Homo sapiens, UniProt Q8IWQ3)", "T6 construct": "purchased Carna Biosciences", "procedure,_shortened": "as §1"}, "CDK4/CycD3": {"target": "T7, CDK4/CycD3 (Homo sapiens, UniProt P11802)", "T7 construct": "purchased Carna Biosciences", "procedure,_shortened": "as §1"}, "CHK1": {"target": "T8, CHK1 (Homo sapiens, UniProt O14757)", "T8 construct": "purchased Carna Biosciences", "procedure,_shortened": "as §1"}, "CK1δ": {"target": "T9, CK1δ (Homo sapiens, UniProt P48730)", "T9 construct": "purchased Carna Biosciences", "procedure,_shortened": "as §1"}, "CaMK4": {"target": "T10, CaMK4 (Homo sapiens, UniProt Q16566)", "T10 construct": "purchased Carna Biosciences", "procedure,_shortened": "as §1"}, "DAPK1": {"target": "T11, DAPK1 (Homo sapiens, UniProt P53355)", "T11 construct": "purchased Carna Biosciences", "procedure,_shortened": "as §1"}, "EML4-ALK": {"target": "T12, EML4-ALK (Homo sapiens, UniProt Q9UM73)", "T12 construct": "purchased Carna Biosciences", "procedure,_shortened": "as §1"}, "FGR": {"target": "T13, FGR (Homo sapiens, UniProt P09769)", "T13 construct": "purchased Carna Biosciences", "procedure,_shortened": "as §1"}, "IKKβ": {"target": "T14, IKKβ (Homo sapiens, UniProt O14920)", "T14 construct": "purchased Carna Biosciences", "procedure,_shortened": "as §1"}, "IKKε": {"target": "T15, IKKε (Homo sapiens, UniProt Q14164)", "T15 construct": "purchased Carna Biosciences", "procedure,_shortened": "as §1"}, "JNK2": {"target": "T16, JNK2 (Homo sapiens, UniProt P45984)", "T16 construct": "purchased Carna Biosciences", "procedure,_shortened": "as §1"}, "KIT(D816V)": {"target": "T17, KIT(D816V) (Homo sapiens, UniProt P10721, D816V)", "T17 construct": "purchased Carna Biosciences", "T17 sequence (P10721 26-976 D816V)": "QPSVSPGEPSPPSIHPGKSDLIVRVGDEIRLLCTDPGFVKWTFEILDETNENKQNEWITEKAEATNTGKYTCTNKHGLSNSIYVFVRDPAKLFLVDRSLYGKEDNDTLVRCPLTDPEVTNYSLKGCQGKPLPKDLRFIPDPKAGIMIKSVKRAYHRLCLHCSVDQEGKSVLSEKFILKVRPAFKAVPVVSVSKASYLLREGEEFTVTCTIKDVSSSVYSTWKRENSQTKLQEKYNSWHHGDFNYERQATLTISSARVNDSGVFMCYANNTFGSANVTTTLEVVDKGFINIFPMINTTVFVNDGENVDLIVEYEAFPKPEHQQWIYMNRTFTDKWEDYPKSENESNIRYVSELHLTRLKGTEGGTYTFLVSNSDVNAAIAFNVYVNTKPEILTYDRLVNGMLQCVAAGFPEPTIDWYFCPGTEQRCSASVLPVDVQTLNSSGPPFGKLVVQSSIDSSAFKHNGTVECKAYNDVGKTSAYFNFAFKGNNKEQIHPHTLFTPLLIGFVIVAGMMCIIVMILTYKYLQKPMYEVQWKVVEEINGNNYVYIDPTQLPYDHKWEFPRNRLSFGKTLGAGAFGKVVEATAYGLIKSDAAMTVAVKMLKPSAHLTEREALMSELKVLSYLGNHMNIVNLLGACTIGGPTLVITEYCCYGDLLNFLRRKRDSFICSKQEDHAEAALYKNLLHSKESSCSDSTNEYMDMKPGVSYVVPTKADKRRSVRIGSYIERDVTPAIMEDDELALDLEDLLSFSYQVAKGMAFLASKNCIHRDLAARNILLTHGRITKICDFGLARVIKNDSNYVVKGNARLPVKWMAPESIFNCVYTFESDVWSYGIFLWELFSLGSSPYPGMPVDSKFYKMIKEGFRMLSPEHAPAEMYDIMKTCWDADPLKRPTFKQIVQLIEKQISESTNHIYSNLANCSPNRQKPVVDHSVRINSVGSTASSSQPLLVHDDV", "procedure,_shortened": "as §1"}, "LOK": {"target": "T18, LOK (Homo sapiens, UniProt O94804)", "T18 construct": "purchased Carna Biosciences", "procedure,_shortened": "as §1"}, "MAPKAPK2": {"target": "T19, MAPKAPK2 (Homo sapiens, UniProt P49137)", "T19 construct": "purchased Carna Biosciences", "procedure,_shortened": "as §1"}, "MARK3": {"target": "T20, MARK3 (Homo sapiens, UniProt P27448)", "T20 construct": "purchased Carna Biosciences", "procedure,_shortened": "as §1"}, "MARK4": {"target": "T21, MARK4 (Homo sapiens, UniProt Q96L34)", "T21 construct": "purchased Carna Biosciences", "procedure,_shortened": "as §1"}, "NuaK1": {"target": "T22, NuaK1 (Homo sapiens, UniProt O60285)", "T22 construct": "purchased Carna Biosciences", "procedure,_shortened": "as §1"}, "PKN1": {"target": "T23, PKN1 (Homo sapiens, UniProt Q16512)", "T23 construct": "purchased Carna Biosciences", "procedure,_shortened": "as §1"}, "PKR": {"target": "T24, PKR (Homo sapiens, UniProt P19525)", "T24 construct": "purchased Carna Biosciences", "procedure,_shortened": "as §1"}, "RON": {"target": "T25, RON (Homo sapiens, UniProt Q04912)", "T25 construct": "purchased Carna Biosciences", "T25 sequence (Q04912 25-1400)": "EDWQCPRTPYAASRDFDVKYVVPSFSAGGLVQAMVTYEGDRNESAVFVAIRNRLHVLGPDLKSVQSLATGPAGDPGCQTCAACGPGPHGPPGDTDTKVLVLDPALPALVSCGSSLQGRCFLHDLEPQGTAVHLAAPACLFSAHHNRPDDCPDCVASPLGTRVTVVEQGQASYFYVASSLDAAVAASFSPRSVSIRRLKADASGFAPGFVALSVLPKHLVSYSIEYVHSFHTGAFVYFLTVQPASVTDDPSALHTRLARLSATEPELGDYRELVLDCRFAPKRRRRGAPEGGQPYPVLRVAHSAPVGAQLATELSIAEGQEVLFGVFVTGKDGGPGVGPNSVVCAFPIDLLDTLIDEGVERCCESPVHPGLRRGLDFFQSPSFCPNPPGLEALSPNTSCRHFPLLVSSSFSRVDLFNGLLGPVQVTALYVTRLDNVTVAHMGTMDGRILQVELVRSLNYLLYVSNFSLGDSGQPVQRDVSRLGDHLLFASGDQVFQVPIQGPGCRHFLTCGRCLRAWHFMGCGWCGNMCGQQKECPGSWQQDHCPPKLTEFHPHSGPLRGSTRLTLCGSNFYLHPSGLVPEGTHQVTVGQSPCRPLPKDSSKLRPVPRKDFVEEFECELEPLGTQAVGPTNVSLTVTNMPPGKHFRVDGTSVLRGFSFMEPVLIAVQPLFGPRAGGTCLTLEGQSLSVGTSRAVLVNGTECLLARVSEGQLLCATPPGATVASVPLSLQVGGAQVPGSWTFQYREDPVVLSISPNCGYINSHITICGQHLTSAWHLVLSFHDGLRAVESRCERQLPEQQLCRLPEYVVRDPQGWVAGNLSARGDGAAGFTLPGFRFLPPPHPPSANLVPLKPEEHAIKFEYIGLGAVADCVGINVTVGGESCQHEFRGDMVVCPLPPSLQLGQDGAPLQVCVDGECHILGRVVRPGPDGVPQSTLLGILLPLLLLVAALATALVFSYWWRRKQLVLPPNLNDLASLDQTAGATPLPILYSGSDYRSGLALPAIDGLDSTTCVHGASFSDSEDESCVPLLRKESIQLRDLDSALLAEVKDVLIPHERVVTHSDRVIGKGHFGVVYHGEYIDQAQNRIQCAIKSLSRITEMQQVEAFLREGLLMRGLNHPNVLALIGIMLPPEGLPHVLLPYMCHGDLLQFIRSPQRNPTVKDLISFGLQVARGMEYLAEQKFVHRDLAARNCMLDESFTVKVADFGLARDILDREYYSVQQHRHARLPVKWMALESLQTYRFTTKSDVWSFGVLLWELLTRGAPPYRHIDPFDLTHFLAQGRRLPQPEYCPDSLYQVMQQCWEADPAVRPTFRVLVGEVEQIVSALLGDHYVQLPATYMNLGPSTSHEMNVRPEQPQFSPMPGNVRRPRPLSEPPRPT", "procedure,_shortened": "as §1"}, "RSK3": {"target": "T26, RSK3 (Homo sapiens, UniProt Q15349)", "T26 construct": "purchased Carna Biosciences", "procedure,_shortened": "as §1"}, "SGK": {"target": "T27, SGK (Homo sapiens, UniProt O00141)", "T27 construct": "purchased Carna Biosciences", "procedure,_shortened": "as §1"}, "SIK": {"target": "T28, SIK (Homo sapiens, UniProt P57059)", "T28 construct": "purchased Carna Biosciences", "procedure,_shortened": "as §1"}, "TSSK3": {"target": "T29, TSSK3 (Homo sapiens, UniProt Q96PN8)", "T29 construct": "purchased Carna Biosciences", "procedure,_shortened": "as §1"}, "WNK3": {"target": "T30, WNK3 (Homo sapiens, UniProt Q9BYP7)", "T30 construct": "purchased Carna Biosciences", "procedure,_shortened": "as §1"}, "p38δ": {"target": "T31, p38δ (Homo sapiens, UniProt O15264)", "T31 construct": "purchased Carna Biosciences", "procedure,_shortened": "as §1"}, "skMLCK": {"target": "T32, skMLCK (Homo sapiens, UniProt Q9H1R3)", "T32 construct": "purchased Carna Biosciences", "procedure,_shortened": "as §1"}, "FGFR3": {"target": "T33, FGFR3 (Homo sapiens, UniProt P22607)", "T33 construct": "purchased Carna Biosciences", "T33 sequence (P22607 23-806)": "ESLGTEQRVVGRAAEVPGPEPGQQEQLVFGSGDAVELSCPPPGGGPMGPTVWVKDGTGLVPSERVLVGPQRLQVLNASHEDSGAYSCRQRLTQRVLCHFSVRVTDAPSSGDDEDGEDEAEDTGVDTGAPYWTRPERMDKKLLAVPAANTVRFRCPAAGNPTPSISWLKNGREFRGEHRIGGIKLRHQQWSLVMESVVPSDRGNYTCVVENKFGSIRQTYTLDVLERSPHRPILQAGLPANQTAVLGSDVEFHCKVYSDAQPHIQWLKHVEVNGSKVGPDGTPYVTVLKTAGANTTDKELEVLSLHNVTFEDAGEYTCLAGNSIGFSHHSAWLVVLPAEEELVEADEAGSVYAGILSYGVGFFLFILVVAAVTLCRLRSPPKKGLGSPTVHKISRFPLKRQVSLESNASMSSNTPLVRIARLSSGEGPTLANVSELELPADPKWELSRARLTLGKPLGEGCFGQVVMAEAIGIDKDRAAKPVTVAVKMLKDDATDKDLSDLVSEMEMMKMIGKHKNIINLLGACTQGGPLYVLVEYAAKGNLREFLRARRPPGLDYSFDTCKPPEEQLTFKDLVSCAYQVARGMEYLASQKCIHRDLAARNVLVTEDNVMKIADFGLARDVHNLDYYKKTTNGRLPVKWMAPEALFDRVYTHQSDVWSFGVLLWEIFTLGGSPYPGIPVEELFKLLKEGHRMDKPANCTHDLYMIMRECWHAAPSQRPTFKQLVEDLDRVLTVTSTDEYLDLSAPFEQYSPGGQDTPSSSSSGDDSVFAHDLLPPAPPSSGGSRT"}, "FGFR4(N535K)": {"target": "T34, FGFR4(N535K) (Homo sapiens, UniProt P22455, N535K)", "T34 construct": "purchased Carna Biosciences"}, "JAK1": {"target": "T35, JAK1 (Homo sapiens, UniProt P23458)", "T35 construct": "purchased Carna Biosciences"}, "RET": {"target": "T36, RET (Homo sapiens, UniProt P07949)", "T36 construct": "purchased Carna Biosciences"}}}
{"smiles": "[H]/N=C1/NC(=O)C(=Cc2ccc3c(c2)CCO3)S1", "note": "[CaNDY, (Z)-5-[(2,3-dihydrobenzofuran-5-yl)methylene]-2-iminothiazolidin-4-one]", "values": [{"measurement": "remaining activity at 1 µM", "setting": "ABL", "result": 103, "unit": "%"}, {"measurement": "remaining activity at 1 µM", "setting": "ALK(F1174L)", "result": 97.9, "unit": "%"}, {"measurement": "remaining activity at 1 µM", "setting": "ALK(L1196M)", "result": 97.8, "unit": "%"}, {"measurement": "remaining activity at 1 µM", "setting": "AurB", "result": 95.1, "unit": "%"}, {"measurement": "remaining activity at 1 µM", "setting": "BLK", "result": 101, "unit": "%"}, {"measurement": "remaining activity at 1 µM", "setting": "BRSK2", "result": 97.8, "unit": "%"}, {"measurement": "remaining activity at 1 µM", "setting": "CDK4/CycD3", "result": 86.4, "unit": "%"}, {"measurement": "%Activity", "setting": "CHK1", "result": 93.5, "unit": "%"}, {"measurement": "remaining activity at 1 µM", "setting": "CK1δ", "result": 67.9, "unit": "%"}, {"measurement": "remaining activity at 1 µM", "setting": "CaMK4", "result": 103, "unit": "%"}, {"measurement": "remaining activity at 1 µM", "setting": "DAPK1", "result": 80.6, "unit": "%"}, {"measurement": "remaining activity at 1 µM", "setting": "EML4-ALK", "result": 99.2, "unit": "%"}, {"measurement": "remaining activity at 1 µM", "setting": "FGR", "result": 102, "unit": "%"}, {"measurement": "remaining activity at 1 µM", "setting": "IKKβ", "result": 104, "unit": "%"}, {"measurement": "remaining activity at 1 µM", "setting": "IKKε", "result": 97.6, "unit": "%"}, {"measurement": "%Activity", "setting": "JNK2", "result": 102.6, "unit": "%"}, {"measurement": "remaining activity at 1 µM", "setting": "KIT(D816V)", "result": 92.2, "unit": "%"}, {"measurement": "%Activity", "setting": "LOK", "result": 106.3, "unit": "%"}, {"measurement": "remaining activity at 1 µM", "setting": "MAPKAPK2", "result": 100, "unit": "%"}, {"measurement": "remaining activity at 1 µM", "setting": "MARK3", "result": 95, "unit": "%"}, {"measurement": "%Activity", "setting": "MARK4", "result": 94.3, "unit": "%"}, {"measurement": "%Activity", "setting": "NuaK1", "result": 98.1, "unit": "%"}, {"measurement": "remaining activity at 1 µM", "setting": "PKN1", "result": 74.6, "unit": "%"}, {"measurement": "%Activity", "setting": "PKR", "result": 95.4, "unit": "%"}, {"measurement": "remaining activity at 1 µM", "setting": "RON", "result": 98.6, "unit": "%"}, {"measurement": "remaining activity at 1 µM", "setting": "RSK3", "result": 91.4, "unit": "%"}, {"measurement": "remaining activity at 1 µM", "setting": "SGK", "result": 93.6, "unit": "%"}, {"measurement": "%Activity", "setting": "SIK", "result": 99.9, "unit": "%"}, {"measurement": "remaining activity at 1 µM", "setting": "TSSK3", "result": 110, "unit": "%"}, {"measurement": "remaining activity at 1 µM", "setting": "WNK3", "result": 102, "unit": "%"}, {"measurement": "remaining activity at 1 µM", "setting": "p38δ", "result": 74.8, "unit": "%"}, {"measurement": "remaining activity at 1 µM", "setting": "skMLCK", "result": 96.2, "unit": "%"}, {"measurement": "remaining activity at 1 µM", "setting": "FGFR3", "result": 104, "unit": "%"}, {"measurement": "remaining activity at 1 µM", "setting": "FGFR4(N535K)", "result": 100, "unit": "%"}, {"measurement": "%Activity", "setting": "JAK1", "result": 96.9, "unit": "%"}, {"measurement": "remaining activity at 1 µM", "setting": "RET", "result": 102, "unit": "%"}]}
